Laboratory results as given in US20220205982A1 (CHILDREN'S HOSPITAL MEDICAL CENTER, priority 2019, published 2022).
Where two headings read alike, the source gives them in different places.

What was measured:
[1] = cited from earlier work
[2] = Real-time PK study of melphalan in whole blood by PS-MS/MS in patients undergoing HSCT; type: in vivo; conditions: human, intravenous
Method: Patients undergoing HSCT were administered by intravenous infusion a low dose of melphalan (referred to as the ‘test’ dose) to first determine each patient's individualized pharmacokinetics of the drug. After that the personalized optimal full dose was calculated from these measurements and then administered. The test dose equated to 10% of the expected standard full dose for each patient. Blood samples for pharmacokinetic measurement were collected after the test dose and again after the full standard dose of melphalan. Samples were collected at baseline, 5-10 mins before drug infusion, and then 5 min, 15 min, 30 min, 45 min, 1 h, 2h, 2.5h, 4h, and 6h post-infusion. […] Plasma samples from the same blood draw were also obtained after centrifugation at 3000 rpm for 15 min and stored at −80° C. degree until analyzed by both PS-MS/MS and LC-ESI-MS/MS. […]
PS-MS/MS was performed on an automated PS ion source (Prosolia, Inc. Indianapolis, Ind.) interfaced with a TSQ Quantum Ultra mass spectrometer (Thermo Scientific, San Jose, Calif.). […] A total of 50 scans in positive ion mode were acquired over 1 min for each m/z transition monitored. The transitions m/z 305.3 →246.2 for melphalan and the corresponding transition m/z 313.3→254.2 for the I.S. were used for quantification, while the transition m/z 305.3→194.2 served as a qualifier for melphalan confirmation. […]

[3] = Clinical outcome and toxicity after melphalan full dose in RIC allogeneic HCT (engraftment, chimerism, mucositis, VOD, GVHD); type: in vivo, human
Method: Patients undergoing allogeneic HCT for non-malignant disorders with a uniform RIC regimen that included alemtuzumab, fludarabine and melphalan were enrolled in this study. Full standard dose of melphalan was set as follows: • 140 mg/m^2 in patients having a body weight >10 kg, • 4.7 mg/kg in patients having a body weight <10 kg, and • 70 mg/m^2 in one patient with a radio sensitivity disorder.
Blood samples were obtained for PK measurement after the administration of test dose and the full standard dose of melphalan. A total of 10 blood samples were obtained around each dose of melphalan: at baseline (5-10 min prior to start of the melphalan infusion of) and then approximately at 5 min, 15 min, 30 min, 45 min, 60 min, 2 hour, 2.5, 4, and 6 hours after the end of the melphalan infusion. Samples were collected on ice and transported to the institution's mass spectrometry laboratory for instant analysis by PS-MS/MS and conventional LC-MS/MS. Patient data collected for analysis included baseline organ function, presence of oral and gastrointestinal mucositis, renal and liver dysfunction including VOD, initial donor chimerism, graft rejection, and acute and chronic GVHD (aGVHD and cGVHD). The Common Terminology Criteria for Adverse Events (CTCAE) version 4.0 was used to evaluate adverse events. Acute and chronic GVHD were assessed by standardized published criteria. See, e.g., Glucksberg H, et al. Transplantation. 1974; 18:295-304 and Filipovich A H, et al. Biol Blood Marrow Transplant. 2005; 11:945-956. Interim analyses were completed after enrollment of 5 patients and 10 patients respectively to validate data following 25% and 50% of intended total patient enrollment. The AUC range that led to full donor chimerism without excess toxicity in majority of patients was selected to be the desired target AUC for full dose adjustment. In patients with baseline impaired organ function, personalized full dose melphalan was adjusted to limit toxicity if test dose PK predicted standard full dose AUC was higher than the desired target AUC range.

[4] = five patients, adjusted full dose
[5] = sixth patient, initial HCT, full dose 0.44 mg/kg
[6] = sixth patient, second HCT, full dose 1.2 mg/kg

Structure (SMILES): N[C@@H](Cc1ccc(N(CCCl)CCCl)cc1)C(=O)O [melphalan, 4-[Bis(2-chloroethyl)amino]-L-phenylalanine]
- inter-patient variability in melphalan exposure ([1]; adults undergoing autologous HCT for multiple myeloma): up to 5 fold
- contribution of renal elimination to melphalan clearance ([1]; in vivo): low
- penetration into cerebrospinal fluid (CSF) ([1]; in vivo): low
- steady-state volume of distribution ([1]; in vivo): about 0.5 L/kg
- AUC ([2]; 10 % of the expected standard full dose, lower test doses, PS-MS/MS, n=4, read-out: calculated mean AUC): 410 ± 230 ng·h/mL
- AUC ([2]; full dose, PS-MS/MS method, n=5, read-out: calculated mean AUC): 4900 ± 1500 ng·h/mL
- donor chimerism at engraftment [3, 4]: ≥ 99%
- patients who developed VOD [3, 4]: None
- patients with grade 3 mucositis [3, 4]: all 5
- patients who developed GVHD ([3]; four patients): 15%
- patients who developed grade 1 acute GVHD of skin ([3]; human, in vivo): Two
- patients who developed limited chronic GVHD ([3]; human, in vivo): two
- VOD of the liver or other excessive toxicity [3, 5]: did not develop VOD of the liver or other excessive toxicity
- graft outcome [3, 5]: developed secondary graft failure
- whole blood donor chimerism [3, 5]: 79%
- VOD of the liver or other excessive toxicity [3, 6]: without developing VOD of the liver or other excessive toxicity
- donor chimerism [3, 6]: 100%
- patients who developed VOD of the liver ([3]; standard dose melphalan): Two
- patients who developed grade 1 mucositis ([3]; standard dose melphalan): one
- patients who developed grade 2 mucositis ([3]; standard dose melphalan): 5 patients
- patients who developed grade 3 mucositis ([3]; standard dose melphalan): Ten
- patients who developed grade 4 mucositis ([3]; standard dose melphalan): one
- patients who developed primary graft failure ([3]; standard dose melphalan): None
- donor chimerism at engraftment ([3]; standard dose melphalan, all patients): > 95%
